Experiment [1] relates to chronic kidney disease model rat. The experiment is described as follows: Suppressive effect on rise in serum creatinine concentration of chronic kidney disease model rat. The format is in vivo. The conditions noted are these: dosage 0.3% in feed, 14 weeks. From the text:
Test Example 7: Suppressive Effect on Rise in Serum Creatinine Concentration of Chronic Kidney Disease Model Rat
A group given feed non-supplemented with the test compound was used as a reference pathological group, and a group neither subjected to the kidney removal nor antibody administration and given feed non-supplemented with the test compound was used as a normal group. Fourteen weeks after the start of administration of the test compound, blood was collected from the abdominal aorta and serum was collected. As an indicator of renal damage, serum creatinine concentrations were measured by an enzyme assay (creatinase-sarcosine oxidase-POD method). The rate of suppression of a rise in serum creatinine concentration was determined according to the following expression: Rate (%) of suppression of a rise in serum creatinine concentration=(1−[(Serum creatinine concentration of the test compound-treated pathological group)−(Serum creatinine concentration of the normal group)]/[(Serum creatinine concentration of the reference pathological group)−(Serum creatinine concentration of the normal group)])×100

Another experiment has as its target T1, human PiT-1 (Homo sapiens, UniProt Q8WUM9).
T1 construct: expressed in transfected cells; host or cells: CHO cells
T1 sequence (Q8WUM9 1-679): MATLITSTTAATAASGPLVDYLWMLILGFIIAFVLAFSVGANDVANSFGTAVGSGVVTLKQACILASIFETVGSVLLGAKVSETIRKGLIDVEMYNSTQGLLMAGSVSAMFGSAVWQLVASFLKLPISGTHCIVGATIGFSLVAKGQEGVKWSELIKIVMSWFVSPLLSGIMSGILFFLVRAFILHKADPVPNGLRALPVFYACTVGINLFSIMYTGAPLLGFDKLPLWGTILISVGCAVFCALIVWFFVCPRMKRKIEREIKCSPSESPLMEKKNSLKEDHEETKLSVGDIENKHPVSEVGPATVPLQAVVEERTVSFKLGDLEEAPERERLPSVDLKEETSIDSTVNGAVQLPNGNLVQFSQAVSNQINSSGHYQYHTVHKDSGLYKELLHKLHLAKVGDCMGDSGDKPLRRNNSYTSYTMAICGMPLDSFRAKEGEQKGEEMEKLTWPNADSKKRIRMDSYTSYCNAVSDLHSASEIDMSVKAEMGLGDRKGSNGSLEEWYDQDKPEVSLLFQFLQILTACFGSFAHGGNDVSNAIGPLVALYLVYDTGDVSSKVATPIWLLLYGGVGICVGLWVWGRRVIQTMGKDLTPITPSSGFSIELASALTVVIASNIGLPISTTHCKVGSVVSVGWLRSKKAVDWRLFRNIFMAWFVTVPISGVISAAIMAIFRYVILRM
The experiment is described as follows: Inhibitory effect on 33PO4 uptake into human PiT-1-expressing CHO cells. The format is cell-based. As to conditions: compound 0.24, 1.2, 6 or 30 μM, pH 6.5, read-out: IC50 against 33PO4 uptake into human PiT-1-expressing cells. The method in brief:
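CHO cells transiently transfected with human PiT-1 or empty vector were exposed to compound, then to 33PO4 at room temperature and washed ice-cold; uptake counted by scintillation. Inhibition computed on PiT-1-specific uptake (PiT-1 minus vector cells) relative to DMSO wells.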

Turning to `COCCN(C)CCOc1ccc(CN2C(=O)C(C(=O)Nc3ccc(C(F)(F)F)cc3-c3cc(C(F)(F)F)ncn3)=C(O)C3(CCCC3)N2C)c(F)c1F` [Example 14, 7-[[2,3-Difluoro-4-[2-[2-methoxyethyl(methyl)amino]ethoxy]phenyl]methyl]-10-hydroxy-6-methyl-8-oxo-N-[4-(trifluoromethyl)-2-[6-(trifluoromethyl)pyrimidin-4-yl]phenyl]-6,7-diazaspiro[4.5]dec-9-ene-9-carboxamide], the “Rate of inhibition (%) (suppression of a rise in serum creatinine concentration)” value in experiment [1] is 24%. Moreover, at human PiT-1, the IC50 (usually the midpoint of a concentration-inhibition curve) came to 2200 nM.

The values are drawn from patent US9499553B2 (CHUGAI SEIYAKU KABUSHIKI KAISHA, priority 2013, dated 2016).
